From patent US20050171358A1 (priority 2002, published 2005)

Key:
[1] = test system: Colletotrichum lagenarium; details: 200 ppm spray on cucumber (3 leaf stage), inoculated next day; lesion numbers on first and second leaves after 7 days in green house, graded by Table 5
[2] = test system: Pseudoperonospora cubensis; test: Effect test for cucumber downy mildew (Evaluation Example 4); assay type: in vivo; details: 125 ppm, 200 L/10 a spray on cucumber (3 leaf stage), inoculated next day; diseased area rates of first and second true leaves after 3 days in green house, graded by Table 5
Procedure: The active ingredient compound was diluted with water containing 0.01% Tween 20 to have a concentration of 125 ppm. […] Next day, a zoosporangium suspension of Pseudoperonospora cubensis which was the causative fungus of cucumber downy mildew was sprayed to inoculate.

Phytophthora infestans = assay type: in vivo; details: 125 ppm, 200 L/10 a spray on tomato (5 leaf stage), inoculated next day; diseased area rates of third to fifth true leaves after 3 days in green house, graded by Table 5
Pyricularia oryzae = assay type: in vivo; details: 200 ppm spray on rice (Koshihikari, 3 leaf stage), inoculated next day; lesion numbers on third leaves after 7 days in green house, graded by Table 5

Row | Compound | Evaluation (effect for cucumber anthracnose) [1] | Evaluation (effect for cucumber downy mildew) [2] | Evaluation (effect for tomato late blight) (Phytophthora infestans) | Evaluation (effect for rice blast) (Pyricularia oryzae)
1 | O=C(NCc1cc(CI)no1)NC1CCCCC1 [II-115, 3-(3-iodomethyl-5-isoxazolyl)methyl-1-cyclohexylurea] | 2 (11˜20) | 1 (21˜41) | 3 (6˜10) | 3 (6˜10)
2 | Cc1ccc(C(=O)NCc2cc(CCl)no2)cc1 [III-2, N-[(3-chloromethyl-5-isoxazolyl)methyl]-4-methylbenzamide] | 4 (1˜5) | 5 (0) | 5 (0) | 4 (1˜5)
3 | O=C(NCc1cc(CCl)no1)NC1CCCCC1 [II-105, 3-(3-chloromethyl-5-isoxazolyl)methyl-1-cyclohexylurea] |  | 4 (1˜5) | 5 (0) | 2 (11˜20)
4 | O=C(NCc1cc(CCl)no1)c1ccc([N+](=O)[O-])cc1 [III-278, N-[(3-chloromethyl-5-isoxazolyl)methyl]-4-nitrobenzamide] |  | 2 (11˜20) | 4 (1˜5) | 
5 | Cc1cccc(C(=O)NCc2cc(CCl)no2)c1 [III-274, N-[(3-chloromethyl-5-isoxazolyl)methyl]-3-methylbenzamide] |  | 2 (11˜20) | 4 (1˜5) | 
6 | COc1ccc(C(=O)NCc2cc(CCl)no2)cc1 [III-3, N-[(3-chloromethyl-5-isoxazolyl)methyl]-4-methoxy benzamide] |  | 4 (1˜5) | 2 (11˜20) | 
7 | CS(=O)(=O)c1ccc(C(=O)NCc2cc(CCl)no2)c(Cl)c1 [III-279, N-[(3-chloromethyl-5-isoxazolyl)methyl]-2-chloro-4-methanesulfonylbenzamide] |  | 3 (6˜10) | 5 (0) | 
